Results: PubChem BioAssay (NCI)
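1) Cells in 96-well plates. 2) Compound, 48 h, 5 concentrations. 3) Linear interpolation between surrounding doses. 4) Unreached endpoint = highest concentration. TGI denotes the concentration required for complete inhibition of growth.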

Experiments:
Test in all cases: NCI-60 cell line screen, 48 h
786-0 renal = tested on: 786-0 renal
A498 renal = tested on: A498 renal
ACHN renal = tested on: ACHN renal
CAKI-1 renal = tested on: CAKI-1 renal
CCRF-CEM leukemia = tested on: CCRF-CEM leukemia
DU-145 prostate = tested on: DU-145 prostate
EKVX NSCLC = tested on: EKVX NSCLC
HCC-2998 colon = tested on: HCC-2998 colon
HCT-116 colon = tested on: HCT-116 colon
HCT-15 colon = tested on: HCT-15 colon
HL-60(TB) leukemia = tested on: HL-60(TB) leukemia
HOP-62 NSCLC = tested on: HOP-62 NSCLC
HOP-92 NSCLC = tested on: HOP-92 NSCLC
HS 578T breast = tested on: HS 578T breast
HT29 colon = tested on: HT29 colon
IGROV1 ovarian = tested on: IGROV1 ovarian
K-562 leukemia = tested on: K-562 leukemia
KM12 colon = tested on: KM12 colon
LOX IMVI melanoma = tested on: LOX IMVI melanoma
M14 melanoma = tested on: M14 melanoma
MCF7 breast = tested on: MCF7 breast
MDA-MB-231 breast = tested on: MDA-MB-231 breast
MDA-MB-435 = tested on: MDA-MB-435
MDA-N = tested on: MDA-N
MOLT-4 leukemia = tested on: MOLT-4 leukemia
NCI-H226 lung = tested on: NCI-H226 lung
NCI-H23 lung = tested on: NCI-H23 lung
NCI-H460 lung = tested on: NCI-H460 lung
NCI-H522 lung = tested on: NCI-H522 lung
NCI/ADR-RES ovarian = tested on: NCI/ADR-RES ovarian
OVCAR-3 ovarian = tested on: OVCAR-3 ovarian
OVCAR-4 ovarian = tested on: OVCAR-4 ovarian
OVCAR-5 ovarian = tested on: OVCAR-5 ovarian
OVCAR-8 ovarian = tested on: OVCAR-8 ovarian
PC-3 prostate = tested on: PC-3 prostate
RPMI-8226 leukemia = tested on: RPMI-8226 leukemia
RXF 393 renal = tested on: RXF 393 renal
SF-268 CNS = tested on: SF-268 CNS
SF-295 CNS = tested on: SF-295 CNS
SF-539 CNS = tested on: SF-539 CNS
SK-MEL-2 melanoma = tested on: SK-MEL-2 melanoma
SK-MEL-28 melanoma = tested on: SK-MEL-28 melanoma
SK-MEL-5 melanoma = tested on: SK-MEL-5 melanoma
SK-OV-3 ovarian = tested on: SK-OV-3 ovarian
SW-620 colon = tested on: SW-620 colon
T-47D breast = tested on: T-47D breast
TK-10 renal = tested on: TK-10 renal
U251 CNS = tested on: U251 CNS
UACC-257 melanoma = tested on: UACC-257 melanoma
UO-31 renal = tested on: UO-31 renal
A549 NSCLC = tested on: A549 NSCLC
BT-549 breast = tested on: BT-549 breast
COLO 205 colon = tested on: COLO 205 colon
MALME-3M melanoma = tested on: MALME-3M melanoma
SN12C renal = tested on: SN12C renal
SNB-19 CNS = tested on: SNB-19 CNS
SNB-75 CNS = tested on: SNB-75 CNS
UACC-62 melanoma = tested on: UACC-62 melanoma

Measured: TGI

Cc1cc(OCc2nn(CN3CCN(C)CC3)c(=S)n2/N=C/c2ccc(-c3ccc(Cl)cc3Cl)o2)ccc1Cl
70.6 µM: OVCAR-4 ovarian
52.6 µM: HL-60(TB) leukemia
95.9 µM: HOP-92 NSCLC
31.4 µM: HCC-2998 colon
41.3 µM: RXF 393 renal
47.6 µM: KM12 colon
51 µM: SW-620 colon
59 µM: NCI-H522 lung
not listed: A549 NSCLC | BT-549 breast | COLO 205 colon | MALME-3M melanoma | SN12C renal | SNB-19 CNS | SNB-75 CNS | UACC-62 melanoma
> 100 µM: all other assays above

O=c1c2c(c1=O)C1(SCCCS1)c1cc(Cl)ccc1O2
not listed: HS 578T breast | T-47D breast
> 100 µM: all other assays above
